Test results as given in paper PMC11110727, “Exploiting thiol-functionalized benzosiloxaboroles for achieving diverse substitution patterns – synthesis, characterization and biological evaluation of promising antibacterial agents” (RSC Medicinal Chemistry, 2024).
In brackets after ≈: the same amount, converted by molar mass.

Tests used:
K. pneumoniae ATCC 13883 = test: Antibacterial activity: MIC/MBC, MIC with PAβN, disc-diffusion; assay type: cell-based, Klebsiella pneumoniae; conditions: Klebsiella pneumoniae, ATCC13883; K. pneumoniae ATCC 13883; read-out: MIC
Outline: (§1)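 Read-outs are disc-diffusion zones, broth-microdilution MICs and bactericidal concentrations (MBC), following EUCAST and CLSI guidance. The efflux contribution was probed by rerunning MICs with 20 μg mL^−1 PAβN in MgSO4-supplemented (1 mM) Mueller–Hinton II broth, a ≥4-fold decrease being significant.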

A. baumannii ATCC 19606 = test: as above; assay type: cell-based, Acinetobacter baumannii; conditions: Acinetobacter baumannii, ATCC19606; A. baumannii ATCC 19606; read-out: MIC
Outline: as §1

C. albicans ATCC 90028 = test: Antifungal activity: MIC/MFC, disc-diffusion; assay type: cell-based, Candida albicans; conditions: Candida albicans, ATCC90028; read-out: MIC
Outline: (§2)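 Following two 24–48 h subcultures at 30 °C on the appropriate agar, the clinical MRSA isolates and yeast strains were tested by broth MIC and disc diffusion (EUCAST, CLSI). Killing endpoints (MBC/MFC) were determined per CLSI.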

P. aeruginosa ATCC 27853 = test: Antibacterial activity: MIC/MBC, MIC with PAβN, disc-diffusion; assay type: cell-based; conditions: Pseudomonas aeruginosa, ATCC27853; P. aeruginosa ATCC 27853; read-out: MIC
Outline: as §1

S. aureus ATCC 6538P = test: Antibacterial activity: MIC/MBC determination and disc-diffusion; assay type: cell-based, Staphylococcus aureus; conditions: S. aureus ATCC 6538P; for diameter of inhibition zone: disc-diffusion, — = zone not observed; for MBC / MIC: Staphylococcus aureus, ATCC6538P; for MBC: read-out: MBC (first MBC where Eagle effect); for MIC: read-out: MIC
Outline: (§3)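 Compounds in DMSO were screened by disc diffusion and MIC determination (EUCAST, CLSI), with bactericidal and fungicidal concentrations obtained per CLSI. Fluconazole served as the antifungal reference and linezolid as the Gram-positive reference.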

[1] = system: S. epidermidis ATCC 12228; test: as above; assay type: cell-based; conditions: Staphylococcus epidermidis, ATCC12228, S. epidermidis ATCC 12228; for MIC: read-out: MIC
Outline: as §3

E. faecalis ATCC 29212 = test: as above; assay type: cell-based; conditions: Enterococcus faecalis, ATCC29212, E. faecalis ATCC 29212; for MIC: read-out: MIC
Outline: as §3

[2] = system: B. bronchiseptica ATCC 4617; test: Antibacterial activity: MIC/MBC, disc-diffusion; assay type: cell-based, Bordetella bronchiseptica; conditions: Bordetella bronchiseptica, ATCC4617; B. bronchiseptica ATCC 4617; read-out: MIC
Outline: as §1

S. cerevisiae ATCC 9763 = test: Antifungal activity: MIC/MFC, disc-diffusion; assay type: cell-based, Saccharomyces cerevisiae; conditions: Saccharomyces cerevisiae, ATCC9763; read-out: MIC
Outline: as §2

[3] = system: C. guilliermondii IBA 155; test: Antifungal activity: MIC/MFC, disc-diffusion; assay type: cell-based; conditions: Meyerozyma guilliermondii, IBA155; read-out: MIC
Outline: as §2

SMILES | MIC (K. pneumoniae ATCC 13883) | MIC (A. baumannii ATCC 19606) | MIC (C. albicans ATCC 90028) | MIC (P. aeruginosa ATCC 27853) | diameter of inhibition zone (S. aureus ATCC 6538P) | MBC (S. aureus ATCC 6538P) | MIC (S. aureus ATCC 6538P) | MBC [1] | MIC [1] | MBC (E. faecalis ATCC 29212) | MIC (E. faecalis ATCC 29212) | MIC [2] | MIC (S. cerevisiae ATCC 9763) | MIC [3]
C[Si]1(C)OB(O)c2ccc(SC(=O)c3ccc(C(F)(F)F)cc3)c(F)c21 [Compound 25, S-(7-Fluoro-3-hydroxy-1,1-dimethyl-1,3-dihydrobenzo[c][1,2,5]oxasilaborol-6-yl) 4-(trifluoromethyl)benzothioate] | > 50 µg/mL | > 50 µg/mL | 50 µg/mL (≈ 125 µM) | > 50 µg/mL | 11 mm | 25 µg/mL (≈ 62.5 µM) | 12.5 µg/mL (≈ 31.2 µM) | 25 µg/mL (≈ 62.5 µM) | 3.12 µg/mL (≈ 7.8 µM) | 25 µg/mL (≈ 62.5 µM) | 12.5 µg/mL (≈ 31.2 µM) | > 50 µg/mL | 25 µg/mL (≈ 62.5 µM) | 50 µg/mL (≈ 125 µM)
C[Si]1(C)OB(O)c2cc(F)c(S(=O)(=O)Cl)c(F)c21 [Compound 26, 5,7-Difluoro-3-hydroxy-1,1-dimethyl-1,3-dihydrobenzo[c][1,2,5]oxasilaborole-6-sulfonyl chloride] | > 400 µg/mL | > 400 µg/mL | > 400 µg/mL | > 400 µg/mL | 14 mm | 400 µg/mL | 200 µg/mL |  | 200 µg/mL |  | 200 µg/mL | > 400 µg/mL | > 400 µg/mL | > 400 µg/mL
C[Si]1(C)OB(O)c2cc(F)c(S(N)(=O)=O)c(F)c21 [Compound 27, 5,7-Difluoro-3-hydroxy-1,1-dimethyl-1,3-dihydrobenzo[c][1,2,5]oxasilaborole-6-sulfonamide] | > 400 µg/mL | > 400 µg/mL | > 400 µg/mL | > 400 µg/mL |  |  | 400 µg/mL (≈ 1360 µM) |  | > 400 µg/mL |  | 400 µg/mL (≈ 1360 µM) | > 400 µg/mL | > 400 µg/mL | > 400 µg/mL
C[Si]1(C)OB(O)c2cc(F)c(S(=O)(=O)Nc3ccc(F)cc3)c(F)c21 [Compound 28, 5,7-Difluoro-N-(4-fluorophenyl)-3-hydroxy-1,1-dimethyl-1,3-dihydrobenzo[c][1,2,5]oxasilaborole-6-sulfonamide] | > 400 µg/mL | > 400 µg/mL | > 400 µg/mL | > 400 µg/mL | 22 mm |  | 50 µg/mL (≈ 129 µM) | 100 µg/mL (≈ 258 µM) | 50 µg/mL (≈ 129 µM) |  | 400 µg/mL (≈ 1030 µM) | > 400 µg/mL | > 400 µg/mL | > 400 µg/mL
